Test results from patent US4600772A, “Cephalosporin antibiotics” (Glaxo Group Limited, priority 1978, dated 1986).

Experiments:
[1] = system: wide range of commonly encountered pathogenic organisms; test: Broad spectrum / general antibiotic activity; type: cell-based
[2] = system: strains of Pseudomonas organisms; test: Antibacterial activity against strains of Pseudomonas organisms; type: cell-based; conditions: e.g. strains of Pseudomonas aeruginosa
[3] = Effect of human serum on antibacterial properties; type: cell-based
[4] = Effect of increased inocula; type: cell-based
Bactericidal action = type: cell-based; conditions: at concentrations close to the minimum inhibitory concentration
gram-negative bacteria = test: Experimental infections in mice with gram-negative bacteria; type: in vivo
Pseudomonas aeruginosa = test: Experimental infections in mice with Pseudomonas aeruginosa; type: in vivo
[5] = Acute toxicity tests in mice; conditions: mouse, in vivo
Nephrotoxicity in rats = type: in vivo; conditions: dosages of 2.0 g/kg
[6] = in vivo
[7] = in vivo; remark: listed apart in the source
[8] = Distribution in small rodents after subcutaneous injection

SMILES | properties compared with the compound of formula (Ib) [1] | activity against strains of Pseudomonas organisms [2] | antibiotic activity / general antibiotic properties [1] | impairment of antibacterial properties by human serum [3] | effect of increased inocula [4] | bactericidal action (Bactericidal action) | treatment of experimental infections in mice with gram-negative bacteria (gram-negative bacteria) | protection against strains of Pseudomonas aeruginosa (Pseudomonas aeruginosa) | protection compared with an aminoglycoside such as amikacin (Pseudomonas aeruginosa; versus amikacin) | LD50 [5] | nephrotoxicity (Nephrotoxicity in rats) | distribution in the body [6] | serum levels [7] | therapeutic levels [8]
Nc1nc(/C(=N/OC2(C(=O)O)CCC2)C(=O)N[C@@H]2C(=O)N3C(C(=O)[O-])=C(C[n+]4ccccc4)CS[C@H]23)cs1 [(6R,7R)-7-[(Z)-2-(2-aminothiazol-4-yl)-2-(1-carboxycyclobut-1-oxyimino)acetamido]-3-(1-pyridiniummethyl)-ceph-3-em-4-carboxylate] | not dissimilar properties |  |  |  |  |  |  |  |  |  |  |  |  | 
CC(C)(O/N=C(\C(=O)N[C@@H]1C(=O)N2C(C(=O)[O-])=C(C[n+]3ccccc3)CS[C@H]12)c1csc(N)n1)C(=O)O [compound of formula (Ib), (6R,7R)-7-[(Z)-2-(2-aminothiazol-4-yl)-2-(2-carboxyprop-2-oxyimino)acetamido]-3-(1-pyridiniummethyl)-ceph-3-em-4-carboxylate] |  | excellent activity | possesses to an outstanding extent the general antibiotic properties | not impaired by human serum | low | rapidly bactericidal | successfully treated | excellent protection | comparable | > 1000 mg/kg | No nephrotoxicity was observed | well distributed | high and long lasting serum levels | useful therapeutic levels
